Assays:
ER = experiment: Binding to ER (steroid receptor selectivity profile)
androgen receptor (AR) = molecular target: T1, androgen receptor (AR) (Homo sapiens, UniProt P10275); experiment: Binding to recombinantly produced androgen receptor
T1 construct: made in house
T1 sequence (P10275 1-920): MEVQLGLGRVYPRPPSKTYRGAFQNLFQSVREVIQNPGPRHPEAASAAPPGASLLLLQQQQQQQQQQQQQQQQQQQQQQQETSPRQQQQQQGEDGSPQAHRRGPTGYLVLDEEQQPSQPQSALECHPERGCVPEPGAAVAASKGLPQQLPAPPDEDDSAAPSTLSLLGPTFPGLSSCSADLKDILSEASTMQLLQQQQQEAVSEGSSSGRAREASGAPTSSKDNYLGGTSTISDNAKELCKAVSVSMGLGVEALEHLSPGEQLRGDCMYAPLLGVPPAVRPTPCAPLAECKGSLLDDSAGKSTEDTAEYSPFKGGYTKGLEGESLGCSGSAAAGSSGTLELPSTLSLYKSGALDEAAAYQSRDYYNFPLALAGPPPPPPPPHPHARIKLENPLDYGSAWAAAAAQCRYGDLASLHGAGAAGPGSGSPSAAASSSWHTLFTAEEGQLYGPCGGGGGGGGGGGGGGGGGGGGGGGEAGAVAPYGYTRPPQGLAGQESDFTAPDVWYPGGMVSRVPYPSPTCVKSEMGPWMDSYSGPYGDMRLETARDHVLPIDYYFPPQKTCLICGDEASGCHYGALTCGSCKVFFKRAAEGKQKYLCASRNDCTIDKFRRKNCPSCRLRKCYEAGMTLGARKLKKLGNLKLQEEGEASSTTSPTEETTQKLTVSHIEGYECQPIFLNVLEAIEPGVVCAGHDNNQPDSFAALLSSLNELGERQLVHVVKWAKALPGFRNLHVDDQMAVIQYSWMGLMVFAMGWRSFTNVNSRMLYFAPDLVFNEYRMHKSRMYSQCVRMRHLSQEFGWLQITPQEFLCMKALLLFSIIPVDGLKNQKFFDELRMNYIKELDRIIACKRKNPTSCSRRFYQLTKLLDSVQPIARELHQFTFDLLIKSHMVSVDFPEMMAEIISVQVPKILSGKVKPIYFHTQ
From the text: (§1) The binding of the substances to the glucocorticoid receptor (GR) and other steroid hormone receptors (mineral corticoid receptor (MR), progesterone receptor (PR) and androgen receptor (AR)) is examined with the aid of recombinantly produced receptors. Cytosol preparations of Sf9 cells, which had been infected with recombinant baculoviruses, which code for the GR, are used for the binding studies. In comparison to reference substance [^3H]-dexamethasone, the substances show a high to very high affinity to GR.

[1] = molecular target: T2, progesterone receptor (PR) (Homo sapiens, UniProt P06401); experiment: Binding to recombinantly produced progesterone receptor
T2 construct: made in house
T2 sequence (P06401 1-933): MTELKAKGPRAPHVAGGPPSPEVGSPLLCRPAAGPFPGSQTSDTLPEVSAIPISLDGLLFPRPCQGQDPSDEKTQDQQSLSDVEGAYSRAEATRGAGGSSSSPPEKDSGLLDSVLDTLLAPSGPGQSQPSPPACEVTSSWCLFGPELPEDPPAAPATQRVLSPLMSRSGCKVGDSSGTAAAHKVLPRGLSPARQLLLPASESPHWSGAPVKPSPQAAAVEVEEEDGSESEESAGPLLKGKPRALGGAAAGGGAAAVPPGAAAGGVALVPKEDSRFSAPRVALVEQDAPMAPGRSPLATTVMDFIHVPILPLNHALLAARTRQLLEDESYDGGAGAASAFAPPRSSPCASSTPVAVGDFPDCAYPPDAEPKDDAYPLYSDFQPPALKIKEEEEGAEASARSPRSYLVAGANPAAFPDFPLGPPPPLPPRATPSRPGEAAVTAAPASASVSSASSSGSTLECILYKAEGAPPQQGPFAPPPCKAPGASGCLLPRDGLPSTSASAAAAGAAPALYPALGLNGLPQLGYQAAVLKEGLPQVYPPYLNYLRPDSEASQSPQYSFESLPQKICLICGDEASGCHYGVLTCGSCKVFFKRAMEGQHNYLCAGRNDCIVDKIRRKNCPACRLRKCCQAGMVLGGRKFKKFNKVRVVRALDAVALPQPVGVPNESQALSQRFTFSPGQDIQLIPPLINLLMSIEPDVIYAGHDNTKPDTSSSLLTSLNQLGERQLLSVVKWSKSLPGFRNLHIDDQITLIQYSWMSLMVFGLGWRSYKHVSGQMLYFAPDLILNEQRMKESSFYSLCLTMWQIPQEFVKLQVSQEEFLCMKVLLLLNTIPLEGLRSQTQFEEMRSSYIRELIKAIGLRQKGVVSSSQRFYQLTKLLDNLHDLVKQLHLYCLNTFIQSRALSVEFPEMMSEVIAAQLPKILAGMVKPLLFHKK
From the text: as §1

[2] = molecular target: T3, mineral corticoid receptor (MR) (Homo sapiens, UniProt P08235); experiment: Binding to recombinantly produced mineral corticoid receptor
T3 construct: made in house
T3 sequence (P08235 1-984): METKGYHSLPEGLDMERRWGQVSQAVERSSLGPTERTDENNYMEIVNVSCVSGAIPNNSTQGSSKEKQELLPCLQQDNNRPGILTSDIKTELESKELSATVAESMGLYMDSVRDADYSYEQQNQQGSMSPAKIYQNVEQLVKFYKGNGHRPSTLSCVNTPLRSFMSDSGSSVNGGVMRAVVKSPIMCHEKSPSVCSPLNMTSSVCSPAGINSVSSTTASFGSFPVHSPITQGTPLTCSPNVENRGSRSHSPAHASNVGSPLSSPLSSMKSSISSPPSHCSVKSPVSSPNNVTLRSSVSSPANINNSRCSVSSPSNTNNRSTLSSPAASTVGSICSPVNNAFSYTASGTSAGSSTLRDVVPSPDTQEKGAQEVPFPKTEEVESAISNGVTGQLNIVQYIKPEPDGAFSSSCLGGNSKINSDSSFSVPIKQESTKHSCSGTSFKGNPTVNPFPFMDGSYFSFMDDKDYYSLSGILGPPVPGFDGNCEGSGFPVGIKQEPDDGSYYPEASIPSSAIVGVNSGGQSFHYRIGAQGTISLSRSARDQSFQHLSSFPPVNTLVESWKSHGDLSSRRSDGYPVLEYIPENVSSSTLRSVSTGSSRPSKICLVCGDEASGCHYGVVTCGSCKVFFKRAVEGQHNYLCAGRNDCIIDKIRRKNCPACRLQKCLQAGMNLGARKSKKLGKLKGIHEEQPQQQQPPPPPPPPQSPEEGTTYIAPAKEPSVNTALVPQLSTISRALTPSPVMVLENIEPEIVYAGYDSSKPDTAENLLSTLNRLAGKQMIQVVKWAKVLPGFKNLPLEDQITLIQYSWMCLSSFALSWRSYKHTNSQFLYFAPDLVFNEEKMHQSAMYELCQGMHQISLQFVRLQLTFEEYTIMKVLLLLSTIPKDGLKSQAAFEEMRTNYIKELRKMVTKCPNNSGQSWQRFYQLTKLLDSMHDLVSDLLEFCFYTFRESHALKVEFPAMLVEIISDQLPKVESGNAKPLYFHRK
From the text: as §1

[3] = molecular target: T4, glucocorticoid receptor (GR) (Homo sapiens, UniProt P04150); experiment: Binding to recombinantly produced glucocorticoid receptor (cytosol of baculovirus-infected Sf9 cells, [3H]-dexamethasone as reference); conditions: recombinant GR, Sf9 cytosol preparations
T4 construct: made in house; host or cells: Sf9 cells infected with recombinant baculovirus (cytosol preparation)
T4 sequence (P04150 1-777): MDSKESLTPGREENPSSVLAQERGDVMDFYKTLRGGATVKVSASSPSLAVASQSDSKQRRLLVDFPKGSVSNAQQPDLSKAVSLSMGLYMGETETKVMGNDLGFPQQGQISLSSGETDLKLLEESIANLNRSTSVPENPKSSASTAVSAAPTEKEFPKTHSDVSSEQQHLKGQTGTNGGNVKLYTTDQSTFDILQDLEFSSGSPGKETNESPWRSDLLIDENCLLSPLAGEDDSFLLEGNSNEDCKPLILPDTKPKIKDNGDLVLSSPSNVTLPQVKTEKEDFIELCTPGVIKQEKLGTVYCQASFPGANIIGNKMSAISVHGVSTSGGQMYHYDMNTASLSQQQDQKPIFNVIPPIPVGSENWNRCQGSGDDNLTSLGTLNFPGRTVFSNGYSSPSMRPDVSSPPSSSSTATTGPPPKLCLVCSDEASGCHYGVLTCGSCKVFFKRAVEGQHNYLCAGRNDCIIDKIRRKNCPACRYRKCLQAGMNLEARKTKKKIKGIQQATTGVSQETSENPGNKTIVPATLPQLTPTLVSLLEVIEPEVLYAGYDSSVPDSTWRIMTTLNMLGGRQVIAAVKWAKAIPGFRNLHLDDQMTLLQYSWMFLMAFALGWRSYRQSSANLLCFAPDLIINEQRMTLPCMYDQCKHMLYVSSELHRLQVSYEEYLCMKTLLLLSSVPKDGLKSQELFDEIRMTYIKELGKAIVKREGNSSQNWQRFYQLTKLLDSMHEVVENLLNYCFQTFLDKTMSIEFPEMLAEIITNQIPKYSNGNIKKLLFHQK
From the text: as §1

cytokine IL-8 = experiment: Inhibition of LPS-triggered IL-8 secretion in THP-1 cells (ELISA of supernatant); assay type: cell-based; conditions: Homo sapiens
Experimental: The concentration of the cytokines was determined in the supernatant by means of commercially available ELISA kits.

Compound | IC50 (ER) [nM] | IC50 (androgen receptor (AR)) [nM] | IC50 [1] [nM] | IC50 [2] [nM] | IC50 [3] [nM] | IC50 (cytokine IL-8; LPS-triggered IL-8 secretion, read-out: IC50(IL8)) [nM] | Emax (cytokine IL-8; efficacy of IL-8 inhibition, LPS, read-out: eff. relative to dexamethasone) [%]
CC(C)c1ccc2c(c1O)C(C)(C)CC(O)(C(F)(F)F)C2Nc1cccc2c1ccc(=O)n2-c1ccc(F)nc1 (stereo not shown) [Example 2, 5-{[2,5-Dihydroxy-6-isopropyl-4,4-dimethyl-2-(trifluoromethyl)-1,2,3,4-tetrahydronaphthalene-1-yl]amino}-1-(6-fluoropyridine-3-yl)-1H-quinoline-2-one] | > 1000 | > 1000 | > 1000 | > 1000 | 32 |  | 
COc1c(C(C)C)ccc2c1C(C)(C)CC(O)(C(F)(F)F)C2Nc1cccc2c1ccc(=O)n2-c1ccc(F)nc1 (stereo not shown) [Example 1, 5-{[2-Hydroxy-6-isopropyl-5-methoxy-4,4-dimethyl-2-(trifluoromethyl)-1,2,3,4-tetrahydronaphthalene-1-yl]amino}-1-(6-fluoropyridine-3-yl)-1H-quinoline-2-one] |  |  |  |  |  | 30 | 84.1

— patent EP2072509A1, “1-Aryl-1H-quinoline-2-ones: process for their production and their use as anti-inflammatory agents” (Bayer Schering Pharma Aktiengesellschaft, priority 2007, dated 2009)
